Data published in patent US8551951B2, “Pharmaceutical preparations and methods for inhibiting tumors” (Aenorasis SA Pharmaceuticals and Medical Devices, priority 2000, dated 2013).
Peptide text beside a SMILES is read from it.

What was measured:
Dunning Mat Ly Lu tumors = experiment: Studies MLL-5 and MLL-6, Mat Ly Lu tumor implanted in Copenhagen rats; type: in vivo
Description: Anti-tumor efficacy evaluation of PCK3145 against Mat Ly Lu (MLL) tumor implanted in Copenhagen rats was performed. (Protocol based on S. Garde et al.; The Prostate, 22: 225-233, 1993). Mat LyLu tumor cells were harvested in mid-log phase from the culture flasks by trypsinization, were centrifuged at 1200 rotation per minute (rpm) and washed three timed with Hanks balanced salt solution (HBSS). Following washing, cells were counted and adjusted to a concentration of 5×10^6 cells/ml in HBSS. A 0.1 ml volume of tumor cell inoculum containing 5×10^5 cells was administered subcutaneously into the flank region of each rat. Treatment started at day 3 post-tumor implantation (p.t.i) by local subcutaneous injection (i.e., in the shaved back area just below tumor implantation site) of various PCK3145 concentrations. This treatment was continued daily for 16 days. Experiments were terminated 24 hours after the last treatment. Tumor measurements were taken at days 7, 9, 11, 14, 16 and 18. Tumor volumes are calculated according to formula (a×b^2×0.5), where a—is the length of the long diameter, b—width of the perpendicular small diameter. At day 19 tumors of individual rats were excised and weighed.
Study No: MLL-5 illustrates the efficacy of PCK3145 (SEQ ID NO: 5) compared with polypeptide 7-21 (SEQ ID NO: 4) and polypeptide 76-94 (SEQ ID NO: 6) in tumor growth retardation in Copenhagen rats, which have received Mat Ly Lu implants. Mice were separated in different groups, each receiving various amount of PCK3145 (SEQ ID NO: 5) or control reagents. PCK3145 was injected through the subcutaneous route. The different groups used in these experiments are illustrated in table 8 below. Each group contained 8 mice.
Study No: MLL-6 illustrates the efficacy of PCK3145 (SEQ ID NO: 5) in tumor growth retardation in Copenhagen rats, which have received Mat Ly Lu implants. Mice were separated in different group each receiving various amounts of PCK3145 (SEQ ID NO: 5) or control reagents. PCK3145 was injected through the subcutaneous route. The different groups used in these experiments are illustrated in table 9 below. Each group contained 8 mice. Doxorubicin was administered as single bolus via intra-venous injection on day 3 p.t.i.

PC-3 cells [1] = experiment: Apoptosis assay by ELISA plus; type: cell-based, human; details: for apoptotic cell death effect: 22.5 μM to 90 μM, 72 hours
Description: The three polypeptides (SEQ ID NO: 4, SEQ ID NO: 5 and SEQ ID NO 6) and native PSP94 used here as a positive control were tested in ELISA plus assay to measure cell death through apoptosis. Briefly, the ELISA plus assay is a sandwich enzyme immunoassay able to measure mono- and oligonucleosomes present in the cytoplasmic fraction of cell lysate using two antibodies, one directed against DNA and the other directed against histones. The apoptotic cell death is characterized by activation of endogenous endonucleases (e.g., calcium- and magnesium-dependant), which cleave double-stranded DNA at the most accessible internucleosomal linker region, generating mono- and oligonucleosomes. The enrichment of mono- and oligonucleosomes in the cytoplasm of the apoptotic cells is due to the fact that DNA degradation occurs several hours before plasma membrane breakdown.
Four thousand cells were seeded in Costar 96 well cell culture flat bottom plates in RPMI supplemented media containing 50 μg/ml of bovine serum albumin (BSA) and 0.1 μM FeSO4. The PC-3 cells were treated with various concentrations (22.5 μM to 90 μM) of polypeptides for 72 hours. Apoptosis assay was done as per manufacturer's instructions using the ApopTag kit (Boeringher Mannheim).

PC-3 cells [2] = experiment: [^3H]-Thymidine uptake assay; type: cell-based, human; details: GMP grade
Description: The in vitro growth inhibition effect of rHuPSP94 was assessed using [^3H]-Thymidine uptake assay. [^3H]-Thymidine uptake assay involves [^3H]-Thymidine incorporation into cellular DNA of actively proliferating cells. It measures the proliferative index of the cells versus the MTS assay, which quantifies the number of lived cells following treatment. Cells were seeded in Costar 96 well cell culture flat bottom plates in RPMI supplemented media containing 50 μg/ml of bovine serum albumin (BSA) and 0.1 μM FeSO4. PC-3 cells were exposed to various concentrations of rHuPSP94 for 72 hours and during the final 16 hours of incubation cells were pulsed with 1 μCi of [^3H]-Thymidine. The radioactivity in each well of the plate is counted by a beta-counter and is expressed as total counts per minutes (cpm). Results of in vitro effect of rHuPSP94 on PC-3 cells using the ^3[H]-Thymidine uptake assay are summarized in Table 3 and are expressed as percentage of radioactivity measured for treated-cells relative to the radioactivity measured for non-treated cells (for which [^3H]-thymidine uptake value was set at 100%).
[^3H]-Thymidine uptake assay involves [^3H]-Thymidine incorporation into cellular DNA of actively proliferating cells. [^3H]-Thymidine uptake assay measures the proliferative index of the cells versus the MTS assay, which quantifies the number of lived cells following treatment. The anti-proliferative effects of PCK3145 and two other synthetic polypeptides derived from the amino and carboxy terminus ends of PSP94 (SEQ ID NO: 4 and NO: 6, respectively) as well as the decapeptide (SEQ ID NO: 3) previously shown to mimic the biological action of native PSP94 were assessed in [H3]-Thymidine uptake assay on PC-3 cells. Two separate experiments were conducted with GMP-grade PCK3145.

| Compound | anti-tumor effect (tumor volume), study MLL-5 (Dunning Mat Ly Lu tumors; s.c., days 13, 16, 18, dose not given) | apoptotic cell death effect (PC-3 cells [1]) | anti-tumor effect (tumor volume), study MLL-5 (Dunning Mat Ly Lu tumors; 1 μg/kg/day s.c.) | anti-tumor effect (tumor volume), study MLL-5 (Dunning Mat Ly Lu tumors; 10 μg/kg/day s.c., days 11, 13, 16, 18) | tumor volume reduction over control, study MLL-6 (Dunning Mat Ly Lu tumors; 100 μg/kg/day s.c., days 14, 16 and 18) [%] | difference in tumor weight between control and treated group, study MLL-6 (Dunning Mat Ly Lu tumors; 100 μg/kg/day, day 18 p.t.i) [gram] | tumor weight, study MLL-6 (Dunning Mat Ly Lu tumors; 100 μg/kg/day, day 18 p.t.i, control 56.6 g) [g] | reduction in tumor mass, study MLL-6 (Dunning Mat Ly Lu tumors; 100 μg/kg/day, day 18 p.t.i, p=0.0003) [%] | anti-tumor effect, study MLL-6 (Dunning Mat Ly Lu tumors; 10 and 100 μg/kg/day s.c.) | apoptotic cell death, potency relative to the other polypeptides (PC-3 cells [1]; 90 μM) | reduction in [^3H]-Thymidine uptake (PC-3 cells [2]; 200 μg/ml, first experiment) [%] | inhibition of [^3H]-Thymidine uptake (PC-3 cells [2]; 400 μg/ml, second experiment) [%] |
| --- | --- | --- | --- | --- | --- | --- | --- | --- | --- | --- | --- | --- |
| polypeptide 7-21: PSP94 derived synthetic polypeptide from the amino terminus end, SEQ ID NO: 4 (NEGVPGDSTRKCMDL; Polypeptide 7-21) | comparable anti-tumor effect | dose dependent increase in the apoptotic cell death effect | – | – | – | – | – | – | – | – | – | – |
| C[C@@H](O)[C@H](NC(=O)[C@H](CCC(=O)O)NC(=O)[C@H](Cc1ccc(O)cc1)NC(=O)[C@H](CS)NC(=O)[C@@H](NC(=O)[C@H](CS)NC(=O)[C@@H](NC(=O)[C@H](CCC(=O)O)NC(=O)[C@H](CS)NC(=O)[C@H](CC(N)=O)NC(=O)[C@H](CC(=O)O)NC(=O)[C@@H](NC(=O)[C@H](CCC(N)=O)NC(=O)[C@H](Cc1c[nH]c2ccccc12)NC(=O)[C@@H](N)CCC(=O)O)[C@@H](C)O)[C@@H](C)O)[C@@H](C)O)C(=O)O [PCK3145, EWQTDNCETCTCYET] (H-EWQTDNCETCTCYET-OH; N-terminus and C-terminus assumed) | – | dose dependent increase in the apoptotic cell death effect | No significant effect | significant anti-tumor effect | 31 | 20 | 37.2 | 34 | significant dose-dependent anti-tumor effect | more potent than the other polypeptides | ~40 | 25 |
